Values of other authors in patent US20070042953A1, “Antiepileptogenic complex of albumin with docosahexaenoate” (priority 2005, published 2007).

What was measured:
[1] = tested on: patients with chronic epilepsy; settings: nutritional supplementation, first 6 weeks
[2] = tested on: rat brain cells or hippocampal slices

## CCC=CCC=CCC=CCC=CCC=CC/C=C\CCC(=O)[O-].[Na+] [DHA, cis-4,7,10,13,16,19-Docosahexaenoic acid, sodium salt]
[1]
  seizure frequency: reduce seizure frequency in the first 6 weeks, but the effect was not sustained
[2]
  epileptic activity in vitro: attenuate epileptic activity
